Source: patent US20110135651A1, “METHOD AND COMPOSITION FOR ENHANCING HEMATOPOIETIC STEM CELL MOBILIZATION” (Children's Hospital Medical Center, priority 2008, published 2011)

What was measured:
[1] = molecular target: epidermal growth factor receptor (EGFR), mouse, wild type, on hematopoietic stem and progenitor cells (mouse) (UniProt Q01279); experiment: cell-based or functional assay
[2] = tested on: hematopoietic stem and progenitor cells (HSPCs); experiment: G-CSF induced HSPC mobilization, colony forming cell (CFC) assay of peripheral blood; type: in vivo, mice
Description: As mobilization efficiency of HSPC is a quantitative trait, quantitative trait locus (QTL) analysis was chosen as an approach to identify regulators of mobilization efficiency. Mice were mobilized with huG-CSF (Amgen) at 12.5 μg/ml in PBS/0.1% BSA and administered i.p. at 100 μg/kg/day once a day for 5 days and animals were analyzed on day 6. Murine recombinant EGF (0.2-3.6 μg/g) (Prepro tech, Rocky Hill, N.J.) was dissolved in PBS and administered i.p. on the last day of the G-CSF regimen. Erlotinib (2.5-100 mg/kg) was dissolved in methylcellulose and administered by gavage on day 3, 4, and 5 of the G-CSF regimen. A specific Cdc42 inhibitor (0.5 mg/ml) was dissolved in PBS containing 15% ethanol and administered by tail vain 18 h after the last G-CSF injection. Mobilization efficiency was determined with HSPC obtained approximately 14-16 hours after the last injection received by the group of mice.
Colony forming cell assays. 150 μl of peripheral blood (PB) was added to Hank's balanced salt solution (HBSS) and mixed with 4 ml of methylcellulose (Stem Cell Technologies) containing 50 ng/ml rm SCF, 10 ng/ml rm IL-3 and 10 ng/ml rh JL-6 and incubated at 37° C. Samples were plated in triplicate in 6 well plates (Falcon) and colonies of more than 50 cells were counted between 7 to 10 days. CFC counts were also determined in spleen (1×10^5) using the same protocol. The results are presented as mean±s.d. A paired student's t-test was used to determine the significance of the difference between means of two groups. Values were considered significant when p<0.05.

hematopoietic stem cells = experiment: Competitive transplantation of mobilized peripheral blood to measure stem cell frequency (donor chimerism); type: in vivo, mice
Description: Transplantations/Competitive transplantations. BM cells were harvested and pooled from the tibia and the femur of 6-8 week old mice (donor) as well as B6.5JL(BoyJ) (competitor) mice. […] BM cells were subsequently transplanted into the retro-orbital sinus in a volume of 200 μA in IMDM/2% FCS.
Flow cytometry. Immunostaining and flow cytometry analyses were performed according to standard procedures and analyzed on a FacsCanto flow cytometer (BD Biosciences). Anti-Ly5.2 (clone 104, BD Biosciences, FITC conjugated) and anti-Ly5.1 (clone A20, BD Biosciences, PE conjugated) monoclonal antibodies were used to distinguish donor from recipient and competitor cells. For lineage analysis in hematopoietic tissues, anti-CD3ε (clone 145-2C11, PE-Cy7 conjugated), anti-B220 (clone RA3-6B2, APC conjugated), anti-CD11b (clone M1/70, APC-Cy7 conjugated) and anti-Gr-1 (clone RB6-8C5, APC-Cy7 conjugated, all from BD Biosciences) were used.

[3] = tested on: BM derived progenitor cells adhering to FBMD-1 stromal cells; experiment: CAFC progenitor adhesion assay on FBMD-1 stroma; type: cell-based, mice; details: BM derived HSPCs from G-CSF treated animals
Description: CAFC progenitor adhesion assays. FBMD-1 cells were seeded in IMDM supplemented with 15% FCS and 5% horse serum (Gibco) at a density of 1000 cells per well in a 96 well plate. BM cells were plated onto the FBMD-1 stroma cell line at 3000, 1500, 750 and 375 cells per well at 15 wells per cell concentration in CAFC medium (IMDM, supplemented with 20% horse serum (Gibco) and 10^−5 M hydrocortisone (Sigma)). To determine progenitor cell adhesion, non-adherent cells were washed off the FBMD-1 stroma after 2 hours and fresh CAFC medium was added to each well. The frequency of total HSPCs and adherent HSPCs was determined by counting the frequency of cobblestone areas at day 7 on the FBMD-1 stroma cell line.

Cdc42 = experiment: Rho-GTPase effector domain pull-down assay, Cdc42; type: in vivo, mice; details: for Cdc42 activity (GTP-bound form) in BM cells: in vivo in G-CSF treated animals, compared to G-CSF treatment alone (FIG. 7c, 7d)
Description: (§1) Rho-GTPase effector domain pull-down assays. Relative levels of GTP-bound RAC1, RAC2 and CDC42 were determined by an effector pull-down assay. Briefly, low density bone marrow cells (1×107) were lysed in a Mg2+ lysis/wash buffer (Upstate cell signaling solutions) containing 10% glycerol, 25 mM sodium fluoride, 1 mM sodium orthovanadate and a protease inhibitor cocktail (Roche Diagnostics). Samples were incubated with PAK-1 binding domain/agarose beads and bound (activated) as well as unbound (non-activated) Rho GTPases were probed by immunoblotting with antibodies specific for RAC1 (Upstate), RAC2 (Novus Biologicals) and CDC42 (BD Biosciences). Activated protein was normalized to total protein and β-actin (Sigma) and the relative amount was quantified by densitometry.

Rac1 = experiment: Rho-GTPase effector domain pull-down assay, Rac1; set-up: species or system mice; details: in vivo in G-CSF treated animals (data not shown)
Description: as §1

Rac2 = experiment: Rho-GTPase effector domain pull-down assay, Rac2; set-up: species or system mice; details: in vivo in G-CSF treated animals (data not shown)
Description: as §1

EGFR = EGFR expression in BM HSPCs by real time Q-RT-PCR; type: in vivo, mice; details: upon G-CSF treatment (FIG. 3a)
Text: Whole genome expression analysis. RNA from sorted Lin-C-Kit+ cells were obtained with the Qiagen RNA assay micro kit according to the protocol of the manufacturer. RNA was subsequently linear amplified by the Affymetrix core at CCHMC and reverse transcribed with a Nugene Kit according to the manufacturer protocol. Labeled cDNA was then hybridized to and MOE430 array (Affymetrix) and raw expression data collected. Affymetrix .CEL files of the respective microarrays were imported into the statistical programming language R (www.r-project.org) using the affy Bioconductor (www.bioconductor.org) package. The data were then pre-processed (log2-transformed, background corrected, quantile normalized and summarized) using the rma function of the affy package. Affymetrix probes were filtered and re-grouped during summarization according to RefSeq annotation using custom chip description files (.CDF) for the MOE430 array provided by the Molecular and Behavioral Neuroscience Institute of the University of Michigan (Microarray Lab), http://brainarray.mbni.med.umich.edu/Brainarray/Database/CustomCDF/genomic_curated_CDF.asp). The expression level of the EGFR was subsequently confirmed by a Taqman real time PCR assay kit from Applied Biosystems (Assay ID: Mm01187863_g1)

## Murine recombinant EGF (epidermal growth factor) (from UniProt P01132 977-1029) (ligand)
[1]
  mobilization efficiency of progenitor cells in G-CSF stimulated animals (CFC in peripheral blood) (fold reduction): 4
  stem cell mobilization to PB (donor chimerism 3 months after competitive transplant): < 5 fold less

## C#Cc1cccc(Nc2ncnc3cc(OCCOC)c(OCCOC)cc23)c1 [Erlotinib, reference compound]
[2]; Erlotinib 2.5-10 mg/kg over last 3 days of G-CSF regimen vs G-CSF (FIG. 5e)
  mobilization efficiency of progenitor cells: significantly increased
Hematopoietic stem cells; Erlotinib 2.5-10 mg/kg over last 3 days of G-CSF regimen vs G-CSF, competitive transplantation read-out
  mobilization efficiency of stem cells: significantly increased
[3]; Erlotinib 10 mM (FIG. 7b)
  adhesion of progenitor cells to stroma: significantly reduced adhesion
Cdc42
  Cdc42 activity (GTP-bound form) in BM cells: significant decrease
Rac1
  level of the GTP bound form of Rac1: did not detect a significant change
Rac2
  level of the GTP bound form of Rac2: did not detect a significant change

## EGF: Murine recombinant EGF (epidermal growth factor), activating ligand of EGFR
[2]; G-CSF stimulated animals, single dose EGF 0.8 μg/g on last day of G-CSF regimen (FIG. 3b)
  reduction of mobilization efficiency of progenitor cells: approx. 4 fold
[2]; G-CSF stimulated animals, single dose EGF 0.2-1.0 on last injection day of G-CSF regimen (FIG. 3b)
  mobilization efficiency of progenitor cells: dose-dependent inhibition
[2]; congenic line 1804 compared to B6 mice, G-CSF and EGF treatment (FIG. 3g)
  sensitivity to inhibition of mobilization efficiency by EGF: significantly less sensitive
[2]; non-G-CSF treated animals, EGF dose range tested (data not shown)
  spontaneous mobilization: did not restrict
[2]; wa2+/- mice, G-CSF plus single injection of EGF on day 5 vs G-CSF alone (FIG. 3d)
  mobilization efficiency: unaffected
[2]; wild type mice, G-CSF plus single injection of EGF on day 5 vs G-CSF alone (FIG. 3c)
  mobilization efficiency: significantly reduced
Hematopoietic stem cells; G-CSF plus EGF (0.8 μg/g) vs G-CSF alone, equal volumes of blood (FIG. 3f)
  reduction of contribution to chimerism 3 months post transplant (stem cells mobilized to PB): approx. 5 fold
[3]; EGF 200 ng/ml (FIG. 7a)
  adhesion of progenitor cells to stroma: significantly enhanced adhesion
Cdc42
  Cdc42 activity (GTP-bound form) in BM cells: significant increase
Rac1
  level of the GTP bound form of Rac1: did not detect a significant change
Rac2
  level of the GTP bound form of Rac2: did not detect a significant change

B1: G-CSF: huG-CSF (Amgen), granulocyte colony-stimulating factor (protein, UniProt P09919 31-207, looked up)
Granulocyte …: TPLGPASSLPQSFLLKCLEQVRKIQGDGAALQEKLVSECATYKLCHPEELVLLGHSLGIPWAPLSSCPSQALQLAGCLSQLHSGLFLYQGLLQALEGISPELGPTLDTLQLDVADFATTIWQQMEELGMAPALQPTQGAMPAFASAFQRRAGGVLVASHLQSFLEVSYRVLRHLAQP
Cdc42; B6 animals, G-CSF treated relative to control non-treated animals (FIG. 7e)
  Cdc42 activity in LD-BM cells: significantly increased
Cdc42; line 1804 animals upon G-CSF treatment (FIG. 7e)
  Cdc42 activity in LD-BM cells: not being altered
EGFR
  EGFR expression levels in BM HSPCs: decreased
